The nature of the test: Reverse transcriptase activity was measured in the culture supernatant, concentration that reduces by 50% the HIV produced in the supernatant.

Among the data in BindingDB's records for doi:10.1021/jm9600095 (Institut De Chimie Des Substances Naturelles Cnrs, 1997) are EC50 values, retold here.

With `CCOC(Cn1c(=O)c(C)cn(C2CC(N=[N+]=[N-])C(CO)O2)c1=O)OCC` (stereo not given) [1-(4-Azido-5-hydroxymethyl-tetrahydro-furan-2-yl)-3-(2,2-diethoxy-ethyl)-5-methyl-1H-pyrimidine-2,4-dione], the EC50 was found to be 1500 nM.
In the case of `Cc1cn(C2CC(N=[N+]=[N-])C(CO)O2)c(=O)n(CC2COC(C)(C)O2)c1=O` (stereo not given) [1-(4-Azido-5-hydroxymethyl-tetrahydro-furan-2-yl)-3-(2,2-dimethyl-[1,3]dioxolan-4-ylmethyl)-5-methyl-1H-pyrimidine-2,4-dione], the EC50 is 13000 nM. This EC50 lies about 8.7-fold higher than the previous one.
`Cc1cn(C2CC(N=[N+]=[N-])C(CO)O2)c(=O)n(CCO)c1=O` (stereo not given) [1-(4-Azido-5-hydroxymethyl-tetrahydro-furan-2-yl)-3-(2-hydroxy-ethyl)-5-methyl-1H-pyrimidine-2,4-dione] showed an EC50 of 90 nM.
Compound `COCCOCn1c(=O)c(C)cn(C2CC(N=[N+]=[N-])C(CO)O2)c1=O` (stereo not given) [1-(4-Azido-5-hydroxymethyl-tetrahydro-furan-2-yl)-3-(2-methoxy-ethoxymethyl)-5-methyl-1H-pyrimidine-2,4-dione] returned an EC50 of 140000 nM.
In the case of `Cc1cn(C2CC(N=[N+]=[N-])C(CO)O2)c(=O)n(CCCO)c1=O` (stereo not given) [1-(4-Azido-5-hydroxymethyl-tetrahydro-furan-2-yl)-3-(3-hydroxy-propyl)-5-methyl-1H-pyrimidine-2,4-dione], the EC50 came out at 120 nM.
`Cc1cn(C2CC(N=[N+]=[N-])C(CO)O2)c(=O)n(CC2CC(CO)=NO2)c1=O` (stereo not given) [1-(4-Azido-5-hydroxymethyl-tetrahydro-furan-2-yl)-3-(3-hydroxymethyl-4,5-dihydro-isoxazol-5-ylmethyl)-5-methyl-1H-pyrimidine-2,4-dione] yielded an EC50 of 1300 nM.
In the case of `Cc1cn(C2CC(N=[N+]=[N-])C(CO)O2)c(=O)n(CCCCCCO)c1=O` (stereo not given) [1-(4-Azido-5-hydroxymethyl-tetrahydro-furan-2-yl)-3-(6-hydroxy-hexyl)-5-methyl-1H-pyrimidine-2,4-dione] it was 1200 nM.
Compound `COc1nc(=O)n(CCn2c(=O)c(C)cn(C3CC(N=[N+]=[N-])C(CO)O3)c2=O)cc1C` (stereo not given) [1-(4-Azido-5-hydroxymethyl-tetrahydro-furan-2-yl)-3-[2-(4-methoxy-5-methyl-2-oxo-2H-pyrimidin-1-yl)-ethyl]-5-methyl-1H-pyrimidine-2,4-dione] yielded an EC50 greater than 29000 nM.
Compound `Cc1cn(C2CC(n3c(=O)c(C)cn(C4CC(N=[N+]=[N-])C(CO)O4)c3=O)C(CO)O2)c(=O)[nH]c1=O` (stereo not given) [1-(4-Azido-5-hydroxymethyl-tetrahydro-furan-2-yl)-3-[2-hydroxymethyl-5-(5-methyl-2,4-dioxo-3,4-dihydro-2H-pyrimidin-1-yl)-tetrahydro-furan-3-yl]-5-methyl-1H-pyrimidine-2,4-dione] came in with an EC50 of 100 nM.
`Cc1cn(C2CC(N=[N+]=[N-])C(CO)O2)c(=O)n(CCn2c(=O)c(C)cn(C3CC(N=[N+]=[N-])C(CO)O3)c2=O)c1=O` (stereo not given) [1-(4-azido-5-hydroxymethyltetrahydro-2-furanyl)-3-{2-[1-(4-azido-5-hydroxymethyltetrahydro-2-furanyl)-5-methyl-2,4-dioxo-1,2,3,4-tetrahydro-3-pyrimidinyl]ethyl}-5-methyl-1,2,3,4-tetrahydro-2,4-pyrimidinedione]: the response was half-maximal at 1400 nM (EC50).
To `Cc1cn(C2CC(N=[N+]=[N-])C(CO)O2)c(=O)n(CCN=[N+]=[N-])c1=O` (stereo not given) [3-(2-Azido-ethyl)-1-(4-azido-5-hydroxymethyl-tetrahydro-furan-2-yl)-5-methyl-1H-pyrimidine-2,4-dione] belongs 1500 nM; to `C=CCn1c(=O)c(C)cn(C2CC(N=[N+]=[N-])C(CO)O2)c1=O` (stereo not given) [3-Allyl-1-(4-azido-5-hydroxymethyl-tetrahydro-furan-2-yl)-5-methyl-1H-pyrimidine-2,4-dione], 65000 nM.
`Cc1cn(C2CC(N=[N+]=[N-])C(CO)O2)c(=O)n(N)c1=O` (stereo not given) [3-Amino-1-(4-azido-5-hydroxymethyl-tetrahydro-furan-2-yl)-5-methyl-1H-pyrimidine-2,4-dione]: the EC50 came to 500 nM.
To `CCOC(=O)Cn1c(=O)c(C)cn(C2CC(N=[N+]=[N-])C(CO)O2)c1=O` (stereo not given) [[3-(4-Azido-5-hydroxymethyl-tetrahydro-furan-2-yl)-5-methyl-2,6-dioxo-3,6-dihydro-2H-pyrimidin-1-yl]-acetic acid ethyl ester] belongs 14000 nM; to `CCOP(=O)(Cn1c(=O)c(C)cn(C2CC(N=[N+]=[N-])C(CO)O2)c1=O)OCC` (stereo not given) [[3-(4-Azido-5-hydroxymethyl-tetrahydro-furan-2-yl)-5-methyl-2,6-dioxo-3,6-dihydro-2H-pyrimidin-1-ylmethyl]-phosphonic acid diethyl ester], 4700 nM.
